Source: patent US20170266184A1 (priority 2016, published 2017)
Where two headings read alike, the source gives them in different places.

How the values were obtained:
[1] = molecular target: T1, 5-HT-1A receptor (Rattus norvegicus, UniProt P19327); conditions: subcutaneous injection; cited from earlier work
T1 sequence (P19327 1-422): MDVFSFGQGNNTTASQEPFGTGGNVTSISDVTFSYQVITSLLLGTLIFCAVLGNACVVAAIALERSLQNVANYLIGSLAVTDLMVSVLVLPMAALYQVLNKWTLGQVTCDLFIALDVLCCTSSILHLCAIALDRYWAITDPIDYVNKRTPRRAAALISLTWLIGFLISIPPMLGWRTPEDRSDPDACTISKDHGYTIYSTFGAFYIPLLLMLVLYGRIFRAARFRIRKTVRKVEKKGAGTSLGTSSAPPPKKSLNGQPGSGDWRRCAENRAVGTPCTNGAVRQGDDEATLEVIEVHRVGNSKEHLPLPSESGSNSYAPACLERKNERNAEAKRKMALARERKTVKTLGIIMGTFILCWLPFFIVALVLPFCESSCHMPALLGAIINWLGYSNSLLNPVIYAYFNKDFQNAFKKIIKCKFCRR

[2] = molecular target: T1, 5-HT-1A receptor; set-up: host or cells: rat, whole animal (in vivo); conditions: rats; cited from earlier work
[3] = tested on: rats; test: Conditioned place preference (CPP) test of drug-induced reinforcement; assay type: in vivo, rat
Procedure: A three compartment conditioned place preference (CPP) apparatus with an unbiased design was used to monitor drug-induced reinforcement. The apparatus was made up of transparent plastic Perspex. The compartments were separated by sliding guillotine doors.
The end (preference) compartments (26×26×26 cm each) provided distinct contexts, with one compartment having black horizontal stripes on side walls, the other compartment had vertical black stripes. […] The experiment was conducted in three distinct phases: pre-conditioning, conditioning and post-conditioning.
An animal introduced in the CPP apparatus from the middle compartment and guillotine doors were raised to open. The animal was allowed to explore the entire apparatus for 10 min. Time spent in each compartment was recorded.
The test was carried out on day 13, one day after the last conditioning session, in a drug free state. Each animal was tested only once. As in the pre-conditioning phase, the guillotine doors were removed and rat was given access to the entire apparatus for 10 min. Time spent in ‘Drug’ assigned compartment was monitored.

[4] = tested on: rats
Procedure: This phase started one day after pre-conditioning phase, animals were randomly assigned to six groups, each containing six animals: (i) buspirone 0 mg/kg+saline, (ii) buspirone 0 mg/kg+morphine, (iii) buspirone 1 mg/kg+saline, (iv) buspirone 1 mg/kg+morphine, (v) buspirone 2 mg/kg+saline and (vi) buspirone 2 mg/kg+morphine injected animals. Over next 12 days (day 1 to day 12) animals went through conditioning (one session per day) in which they were confined to either the horizontal or vertical stripe compartment by raising the respective guillotine door. On day 1, 3, 5, 7, 9 and 11 animals of all groups were injected with saline (1 ml/kg) and placed immediately in the assigned ‘Non-Drug’ compartment for 30 min. After which the animals were kept in their home cages. On every other day, i.e. day 2, 4, 6, 8, 10, and 12 control and test animals were injected with saline, buspirone and/or morphine as assigned above. Immediately after injection the animals were placed in the ‘Drug’ compartment for 30 min. The animals picked from the drug compartment were placed back in their home cages.
Motor behavior was also monitored during conditioning phase. Animals confined to a compartment were moving across the compartment. Activity scores were counted as number of cage crossings for 10 min starting 5 min post injection.

[5] = tested on: rats; remark: listed apart in the source
Procedure: After post-conditioning the challenge dose of morphine (7.5 mg/kg) was given. The hot plate test was conducted 30 min after challenge dose to measure difference in heat-induced nociception in the six groups. The latency (either jumping or hind-paw licking) and number of licks were monitored for each animal. The temperature of hot plate was kept 52° C. and cutoff time was 30 sec.

[6] = tested on: rats; conditions: buspirone and apomorphine co-administered to rats; cited from earlier work
[7] = tested on: monkeys; conditions: cited from earlier work
[8] = tested on: humans; conditions: cited from earlier work
[9] = tested on: rats; conditions: fluoxetine with morphine; cited from earlier work
[10] = tested on: rhesus monkeys; conditions: fluoxetine with morphine; cited from earlier work
[11] = all three doses of morphine vs saline treated animals, FIG. 3

## CCCN(CCC)C1CCc2cccc(O)c2C1 (centres unmarked) [8-OH-DPAT, 8-hydroxy-N,N-dipropyl-2-aminotetralin]
[1]
  Analgesic effect: produces an analgesic effect
[2]
  Anti-nociceptive effects: has anti-nociceptive effects

## O=C1CC2(CCCC2)CC(=O)N1CCCCN1CCN(c2ncccn2)CC1 [buspirone]
[3]; buspirone 1 mg or 2 mg/kg co-administered with morphine 7.5 mg/kg, FIG. 1A
  Morphine-induced increases in post-conditioning time spent in drug paired compartment: significantly attenuates
[3]; buspirone 1 mg or 2 mg/kg co-administered with morphine 7.5 mg/kg, FIG. 1B
  Reinforcing effects of morphine (calculated percentage reinforcement): do not occur
[3]; buspirone co-injected animals
  Reduction of addiction to morphine: more than 90%
[4]; animals co-treated with buspirone
  Calculated percentage psychosis like effects of morphine: blocked
[4]; co-administration of 1 mg/kg buspirone, FIG. 2B
  Psychosis like effects of morphine: blocked
[4]; co-administration of 2 mg/kg buspirone, FIG. 2B
  Psychosis like effects of morphine: attenuated
[4]; co-treated with buspirone 1 mg/kg or 2 mg/kg, FIG. 2A
  Tolerance in motor depressant effects of morphine: not produced
[5]; buspirone co-injected animals
  Analgesic effects of morphine: potentiated
[6]
  Addiction to apomorphine: not produced

## CN(C)CCCN1c2ccccc2CCc2ccc(Cl)cc21 [clomipramine]
[7]
  Anti-nociceptive effects of opioids: enhances

## CCNC(C)Cc1cccc(C(F)(F)F)c1 (centres unmarked) [fenfluramine]
[8]
  Analgesic effects of morphine: increase

## CNCCC(Oc1ccc(C(F)(F)F)cc1)c1ccccc1 (centres unmarked) [fluoxetine]
[9]
  Anti-nociceptive effects of morphine: potentiates
[10]
  Anti-nociceptive effects of morphine: potentiates
[8]
  Analgesic effects of morphine: increase

## CN1CC[C@]23c4c5ccc(O)c4O[C@H]2[C@@H](O)C=C[C@H]3[C@H]1C5 [morphine]
[3]; morphine 7.5 mg/kg alone, repeated, FIG. 1A
  Post-conditioning time spent in the drug paired compartment: much higher
[3]; morphine 7.5 mg/kg alone, FIG. 1B
  Calculated percentage reinforcement: reinforcing
[4]; 1st and 2nd injection of morphine, FIG. 2A
  Motor activity: decrease
[4]; 3rd to 6th administration of morphine, day 6, 8, 10 and 12, FIG. 2A
  Decreases in motor activity (tolerance in motor depressant effect): do not occur
[4]; morphine alone, FIG. 2B
  Psychosis like effects: produced psychosis like effects
[5]; 7.5 mg/kg vs 5 mg/kg morphine, FIG. 3
  Increase in latency time in paw licking, comparison of doses: greater at 7.5 mg/kg than 5 mg/kg
[5]; [11]
  Latency time in paw licking: increase
  Number of licks: reduced
[5]; repeated morphine treated animals, 30 min after 7.5 mg/kg morphine challenge, FIG. 4
  Latency time to first lick: reduced
[5]; repeated morphine treated animals, after morphine challenge, FIG. 4
  Number of licks: higher
